Test results: US20140121216A1, “INDOLEAMINE DERIVATIVES FOR THE TREATMENT OF CENTRAL NERVOUS SYSTEM DISEASES” (Adamed Sp. z o.o., priority 2011, published 2014)

Legend:
[1] = target: T1, 5-HT1A (h), human recombinant (CHO cells) (Homo sapiens, UniProt P08908); test: Cellular functional assay 5-HT1A (h) antagonism; format: cell-based; settings: compound 1×10^−6 M; stimulus 8-OH-DPAT 10 nM
T1 construct: expressed in transfected cells; host or cells: CHO cells
T1 sequence (P08908 1-422): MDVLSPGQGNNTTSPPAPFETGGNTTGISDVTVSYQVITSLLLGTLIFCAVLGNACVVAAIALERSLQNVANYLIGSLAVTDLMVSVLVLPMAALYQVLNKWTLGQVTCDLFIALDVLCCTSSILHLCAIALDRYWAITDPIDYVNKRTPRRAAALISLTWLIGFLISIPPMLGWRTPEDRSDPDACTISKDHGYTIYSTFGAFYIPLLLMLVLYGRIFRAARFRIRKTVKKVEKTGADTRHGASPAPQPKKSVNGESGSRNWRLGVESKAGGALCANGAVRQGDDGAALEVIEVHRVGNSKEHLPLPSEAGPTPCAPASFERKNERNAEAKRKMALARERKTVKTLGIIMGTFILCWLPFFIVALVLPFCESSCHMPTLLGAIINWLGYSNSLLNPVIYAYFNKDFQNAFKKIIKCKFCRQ
Protocol: (§1) The results are expressed as a percent of control specific agonist response ((measured specific response/control specific agonist response)×100) obtained in the presence of tested compound.
(§2) The EC50 values (concentration producing a half-maximal specific response) and IC50 values (concentration causing a half-maximal inhibition of the control specific agonist response) were determined by non-linear regression analysis of the concentration-response curves generated with mean replicate values using Hill equation curve fitting (Y=D+[(A−D)/(1+(C/C50)nH)], where Y=specific response, D=minimum specific response, A=maximum specific response, C=compound concentration, and C50=EC50 or IC50, and nH=slope factor).
(§3) For the antagonists, the apparent dissociation constants (Kb) were calculated using the modified Cheng Prusoff equation (Kb=IC50/(1+(A/EC50A)), where A=concentration of reference agonist in the assay, and EC50A=EC50 value of the reference agonist).

[2] = target: T2, 5-HT2A (h), human recombinant (HEK-293 cells) (Homo sapiens, UniProt P28223); test: Cellular functional assay 5-HT2A (h) antagonism; format: cell-based; settings: compound 1×10^−6 M; stimulus serotonin 100 nM
T2 construct: expressed in transfected cells; host or cells: HEK-293 cells
T2 sequence (P28223 whole entry): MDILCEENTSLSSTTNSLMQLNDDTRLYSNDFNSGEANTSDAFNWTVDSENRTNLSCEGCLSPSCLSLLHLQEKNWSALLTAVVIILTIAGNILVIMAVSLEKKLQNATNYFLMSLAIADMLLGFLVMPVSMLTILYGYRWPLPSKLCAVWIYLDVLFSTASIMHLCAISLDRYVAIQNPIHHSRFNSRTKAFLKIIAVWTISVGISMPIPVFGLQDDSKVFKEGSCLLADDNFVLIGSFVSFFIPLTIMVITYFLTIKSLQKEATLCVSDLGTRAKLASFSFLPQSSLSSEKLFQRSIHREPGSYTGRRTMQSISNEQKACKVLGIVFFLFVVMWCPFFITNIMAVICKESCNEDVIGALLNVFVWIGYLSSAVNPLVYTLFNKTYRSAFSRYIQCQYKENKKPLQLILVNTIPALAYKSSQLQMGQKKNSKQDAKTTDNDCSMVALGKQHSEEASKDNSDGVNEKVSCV
Protocol: as §1, §2, §3

[3] = target: T3, H1 histaminergic receptors, human recombinant (HEK-293 cells) (Homo sapiens, UniProt P35367); test: Binding assay, H1 histaminergic receptor ([3H]pyrilamine); settings: for H1 [%] affinity test result: compound 1×10^−6 M; for Ki: read-out: Inhibition constant Ki H1
T3 construct: expressed in transfected cells; host or cells: HEK-293 cells
T3 sequence (P35367 whole entry): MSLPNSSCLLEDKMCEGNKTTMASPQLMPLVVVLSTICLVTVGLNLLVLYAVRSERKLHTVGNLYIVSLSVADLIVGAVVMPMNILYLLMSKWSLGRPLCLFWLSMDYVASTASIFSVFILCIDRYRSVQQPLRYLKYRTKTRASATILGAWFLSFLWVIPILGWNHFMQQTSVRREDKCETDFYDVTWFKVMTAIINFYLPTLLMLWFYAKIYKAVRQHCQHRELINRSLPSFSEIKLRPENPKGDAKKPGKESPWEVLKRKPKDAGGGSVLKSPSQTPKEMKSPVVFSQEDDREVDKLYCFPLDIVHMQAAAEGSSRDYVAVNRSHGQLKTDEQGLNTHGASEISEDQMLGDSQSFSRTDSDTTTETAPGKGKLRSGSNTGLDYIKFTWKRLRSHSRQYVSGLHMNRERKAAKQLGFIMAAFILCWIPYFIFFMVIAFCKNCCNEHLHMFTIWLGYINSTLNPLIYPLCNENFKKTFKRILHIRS
Protocol: (§4) Moreover, ability of the compounds of the invention to block potassium channel hERG was tested.
(§5) The specific ligand binding to the receptors is defined as the difference between the total binding and the non-specific binding determined in the presence of an excess of unlabelled ligand.
(§6) The inhibition constants (Ki) were calculated using the Cheng Prusoff equation (Ki=IC50/(1+(L/KD)), where L=concentration of radioligand in the assay, and KD=affinity of the radioligand for the receptor). A Scatchard plot is used to determine the Kd. The IC50 values (concentration causing a half-maximal inhibition of control specific binding) and Hill coefficients (nH) were determined by non-linear regression analysis of the competition curves generated with mean replicate values using Hill equation curve fitting (Y=D+[(A−D)/(1+(C/C50)^nH)], where Y=specific binding, D=minimum specific binding, A=maximum specific binding, C=compound concentration, C50=IC50, and nH=slope factor). This analysis was performed using a software developed at Cerep (Hill software) and validated by comparison with data generated by the commercial software SigmaPlot® 4.0 for Windows® (©1997 by SPSS Inc.).
Experimental conditions for tests are given in Table 14, and results of tests for representative compounds are given in Table 15a and 15b.

[4] = target: T4, D4.4 receptor, human recombinant (CHO cells) (Homo sapiens, UniProt P21917); test: Binding assay, dopaminergic D4.4 receptor ([3H]methylspiperone); settings: compound 1×10^−6 M
T4 construct: expressed in transfected cells; host or cells: CHO cells
T4 sequence (P21917 1-419): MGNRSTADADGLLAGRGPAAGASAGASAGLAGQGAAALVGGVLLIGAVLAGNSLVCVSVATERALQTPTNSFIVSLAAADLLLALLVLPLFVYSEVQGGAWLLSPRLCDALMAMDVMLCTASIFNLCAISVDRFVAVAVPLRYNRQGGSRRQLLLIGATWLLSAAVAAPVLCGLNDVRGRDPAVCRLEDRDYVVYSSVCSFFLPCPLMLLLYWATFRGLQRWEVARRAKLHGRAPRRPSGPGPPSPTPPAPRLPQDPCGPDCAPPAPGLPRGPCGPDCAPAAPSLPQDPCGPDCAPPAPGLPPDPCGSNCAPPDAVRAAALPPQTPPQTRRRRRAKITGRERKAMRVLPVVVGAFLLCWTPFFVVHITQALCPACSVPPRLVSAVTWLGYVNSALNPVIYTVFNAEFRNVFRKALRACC
Protocol: as §4, §5, §6
Experimental conditions for tests are given in Table 1, the results of tests for so representative compounds are given in Table 2a and 2b (receptors D2 and D3) and in Table 3 (receptors D4).

[5] = target: T5, 5-HT6 (h), human recombinant (CHO cells) (Homo sapiens, UniProt P50406); test: Cellular functional assay 5-HT6 (h) antagonism; format: cell-based; settings: compound 1×10^−6 M, stimulus serotonin 100 nM, read-out: 5-HT6-antag [%]
T5 construct: expressed in transfected cells; host or cells: CHO cells
T5 sequence (P50406 whole entry): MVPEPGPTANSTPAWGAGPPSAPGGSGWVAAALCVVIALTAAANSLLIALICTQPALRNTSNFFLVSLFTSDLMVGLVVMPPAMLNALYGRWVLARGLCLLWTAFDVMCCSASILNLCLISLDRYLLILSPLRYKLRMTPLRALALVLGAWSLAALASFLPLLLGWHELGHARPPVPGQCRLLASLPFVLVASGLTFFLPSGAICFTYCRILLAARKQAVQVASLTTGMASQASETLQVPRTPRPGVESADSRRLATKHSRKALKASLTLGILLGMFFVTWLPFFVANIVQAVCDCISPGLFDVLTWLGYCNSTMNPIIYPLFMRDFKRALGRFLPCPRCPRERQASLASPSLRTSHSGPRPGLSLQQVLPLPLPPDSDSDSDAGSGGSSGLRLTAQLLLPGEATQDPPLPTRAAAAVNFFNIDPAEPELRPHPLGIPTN
Protocol: as §1, §2, §3

[6] = target: T6, D2S (h), human recombinant (HEK-293 cells) (Homo sapiens, UniProt P14416); test: Cellular functional assay D2S (h) antagonism; format: cell-based; settings: HEK293; compound 1×10^−6 M; stimulus dopamine 30 nM; read-out: D2-antag [%]
T6 construct: expressed in transfected cells; host or cells: HEK-293 cells
T6 sequence (P14416 1-414 isoform P14416-2): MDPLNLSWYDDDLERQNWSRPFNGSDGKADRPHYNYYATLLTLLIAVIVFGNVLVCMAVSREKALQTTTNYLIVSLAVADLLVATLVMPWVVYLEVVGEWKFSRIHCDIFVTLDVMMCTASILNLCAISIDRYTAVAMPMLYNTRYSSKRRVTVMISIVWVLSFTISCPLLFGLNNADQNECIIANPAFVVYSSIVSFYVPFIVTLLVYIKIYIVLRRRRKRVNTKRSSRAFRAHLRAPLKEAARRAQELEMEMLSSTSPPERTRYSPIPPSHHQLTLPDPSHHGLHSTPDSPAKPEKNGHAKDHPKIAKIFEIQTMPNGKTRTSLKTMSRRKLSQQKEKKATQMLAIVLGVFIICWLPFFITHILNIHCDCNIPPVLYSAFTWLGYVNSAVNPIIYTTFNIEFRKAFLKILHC
Protocol: as §1, §2, §3

[7] = target: T6, D2S (h), human recombinant (HEK-293 cells); test: Cellular functional assay D2S (h) agonism; format: cell-based; settings: HEK293; compound 1×10^−6 M; control 3 μM dopamine; read-out: D2-ag [%]
Protocol: as §1, §2, §3

[8] = target: T7, D2 receptor, human recombinant (GeneBLAzer D2-Gqo5 CHO-K1 DA) (Homo sapiens, UniProt P14416); test: Binding assay, dopaminergic D2 receptor ([3H]methylspiperone); settings: read-out: Inhibition constant Ki D2
T7 construct: purchased Invitrogen; host or cells: CHO-K1 (GeneBLAzer D2-Gqo5 CHO-K1 DA)
T7 sequence (P14416 whole entry): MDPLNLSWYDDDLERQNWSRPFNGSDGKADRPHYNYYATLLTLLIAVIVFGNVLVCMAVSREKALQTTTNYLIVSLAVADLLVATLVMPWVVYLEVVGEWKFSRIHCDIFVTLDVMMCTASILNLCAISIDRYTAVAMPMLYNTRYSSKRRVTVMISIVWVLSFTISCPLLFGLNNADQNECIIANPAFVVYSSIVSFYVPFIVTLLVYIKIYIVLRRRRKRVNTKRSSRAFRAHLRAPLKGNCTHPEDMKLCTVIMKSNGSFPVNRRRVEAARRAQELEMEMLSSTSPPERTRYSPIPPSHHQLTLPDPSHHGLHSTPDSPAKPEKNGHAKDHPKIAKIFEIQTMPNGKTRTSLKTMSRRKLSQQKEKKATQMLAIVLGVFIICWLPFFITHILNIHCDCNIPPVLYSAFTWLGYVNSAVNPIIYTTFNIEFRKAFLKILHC
Protocol: as §4, §5
as §6, with “factor).” for “factor). This analysis was performed using a software developed at Cerep (Hill software) and validated by comparison with data generated by the commercial software SigmaPlot® 4.0 for Windows® (©1997 by SPSS Inc.).”

[9] = target: 5-HT2A receptor, human recombinant (Homo sapiens, UniProt P28223); test: Binding assay, 5-HT2A receptor ([3H]ketanserin); parameters: purchased PerkinElmer; settings: read-out: Inhibition constant Ki 5-HT2A
5-HT2A receptor, human recombinant, sequence (P28223 whole entry): as the sequence (P28223 whole entry) above
Protocol: as §4, §5
as §6, with “factor).” for “factor). This analysis was performed using a software developed at Cerep (Hill software) and validated by comparison with data generated by the commercial software SigmaPlot® 4.0 for Windows® (©1997 by SPSS Inc.).”

Row | SMILES | 5-HT1A-antag [%] [1] [%] | 5-HT2A-antag [%] [2] [%] | H1 [%] affinity test result [3] [%] | D4.4 [%] binding assay result [4] [%] | inhibition at 1 µM [5] [%] | inhibition at 1 µM [6] [%] | activation at 1 µM [7] [%] | Ki [3] [nM] | Ki [8] [nM] | Ki [9] [nM]
1 | O=C1CCc2ccc(OCCCN3CCN(c4cccc5c4ccn5Cc4ccccc4)CC3)cc2N1 [Compound 4, 7-[3-[4-(1-Benzylindol-4-yl)piperazin-1-yl]propoxy]-3,4-dihydro-1H-quinolin-2-one] | 17 | 17 | 73 | 63 | 73 | 89 | 45 | – | – | –
2 | O=C1CCc2ccc(OCCCN3CCN(c4cccc5c4ccn5S(=O)(=O)c4ccccc4)CC3)cc2N1 [Compound 23, 7-[3-[4-[1-(Benzensulphonyl)indol-4-yl]piperazin-1-yl]propoxy]-3,4-dihydro-1H-quinolin-2-one] | 20 | – | 72 | 18 | 42 | 55 | 40 | 150 | 32 | 170
3 | O=C1CCc2ccc(OCCCCN3CCN(c4cccc5c4ccn5S(=O)(=O)c4ccccc4)CC3)cc2N1 [Compound 24, 7-(4-(4-(1-(Phenylsulphonyl)-1H-indol-4-yl)piperazin-1-yl)butoxy)-3,4-dihydroquinolin-2(1H)-one] | 0 | 34.2 | 78 | 42 | 88.7 | 93 | 47 | 100 | 1.3 | 3.2
4 | NC(=O)c1ccccc1OCCCN1CCN(c2cccc3c2ccn3S(=O)(=O)c2ccccc2)CC1 [Compound 72, 2-[3-[4-[1-(Benzenesulfonyl)indol-4-yl]piperazin-1-yl]propoxy]-benzamide] | 61 | 45 | 80 | 95 | 103 | 95 | 34 | – | 3.2 | 18
5 | O=C1CCc2ccc(OCCCCN3CCN(c4cccc5c4ccn5Cc4ccccc4)CC3)cc2N1 [Compound 5, 7-(4-(4-(1-Benzyl-1H-indol-4-yl)piperazin-1-yl)butoxy)-3,4-dihydroquinolin-2(1H)-one] | 31 | 66 | 88 | 40 | 42 | 99 | 47 | – | – | –
6 | O=C1CCc2ccc(OCCCCN3CCN(c4cccc5c4ccn5Cc4cccc(F)c4)CC3)cc2N1 [Compound 63, 7-[4-[4-[1-[(3-Fluorophenyl)methyl]indol-4-yl]piperazin-1-yl]butoxy]-3,4-dihydro-1H-quinolin-2-one] | 73 | 63 | 81 | 46 | 61 | 108 | 47 | – | – | –
7 | O=C1CCc2ccc(OCCCCN3CCN(c4cccc5c4ccn5Cc4cccc(Cl)c4)CC3)cc2N1 [Compound 67, 7-[4-[4-[1-[(3-Chlorophenyl)methyl]indol-4-yl]piperazin-1-yl]butoxy]-3,4-dihydro-1H-quinolin-2-one] | 56 | 34 | – | 44 | 53 | 103 | 46 | – | – | –
